Results published in PubChem BioAssay (NCI).
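Growth conditions: 96-well plates. Treatment: test compound, 48 hours, 5 concentrations. Analysis: linear interpolation between bracketing concentrations; unreached endpoints set to highest concentration. GI50 = concentration required for 50% inhibition of growth. TGI: total growth inhibition.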

Tests used:
Assay in all cases: NCI tumour cell line growth inhibition, 48 h
786-0 renal = test system: 786-0 renal
K-562 leukemia = test system: K-562 leukemia
MALME-3M melanoma = test system: MALME-3M melanoma
MOLT-4 leukemia = test system: MOLT-4 leukemia
OVCAR-3 ovarian = test system: OVCAR-3 ovarian
OVCAR-5 ovarian = test system: OVCAR-5 ovarian
RXF 393 renal = test system: RXF 393 renal
SN12C renal = test system: SN12C renal
UACC-257 melanoma = test system: UACC-257 melanoma
HS 578T breast = test system: HS 578T breast

SMILES | TGI (786-0 renal) [µM] | TGI (K-562 leukemia) [µM] | TGI (MALME-3M melanoma) [µM] | TGI (MOLT-4 leukemia) [µM] | TGI (OVCAR-3 ovarian) [µM] | TGI (OVCAR-5 ovarian) [µM] | TGI (RXF 393 renal) [µM] | TGI (SN12C renal) [µM] | TGI (UACC-257 melanoma) [µM] | GI50 (786-0 renal) [µM] | GI50 (HS 578T breast) [µM] | TGI (HS 578T breast) [µM] | GI50 (K-562 leukemia) [µM] | GI50 (MOLT-4 leukemia) [µM] | GI50 (OVCAR-3 ovarian) [µM] | GI50 (OVCAR-5 ovarian) [µM] | GI50 (SN12C renal) [µM] | GI50 (UACC-257 melanoma) [µM] | GI50 (MALME-3M melanoma) [µM] | GI50 (RXF 393 renal) [µM]
COc1ccc(N=Nc2c(-c3ccccc3)nn(C(=O)CC(=O)Nc3ccccc3Cl)c2-c2ccccc2)cc1 | > 100 | > 100 | > 100 | 8.85 | > 100 | > 100 | > 100 | > 100 | > 100 | – | – | – | – | – | – | – | – | – | – | –
CC(C)C[CH2][Ge]([CH2]CC(C)C)([CH2]CC(C)C)[CH2]CC(C)C | > 100 | > 100 | – | > 100 | > 100 | > 100 | – | > 100 | > 100 | > 100 | > 100 | > 100 | > 100 | > 100 | > 100 | > 100 | > 100 | > 100 | – | –
NC(CCc1ncc(-c2ccccc2)s1)C(=O)O (stereo not given) | > 100 | > 100 | > 100 | > 100 | > 100 | – | > 100 | > 100 | > 100 | – | – | – | – | – | – | – | – | – | – | –
CCOc1ccc(NCC2CC/C(=C\c3ccc(Cl)cc3)C2=O)cc1 (stereo not given) | 25.8 | 34.9 | > 87.5 | 69.8 | > 51.9 | > 100 | > 64.6 | > 60.3 | > 56.1 | – | – | – | – | – | – | – | – | – | – | –
Cc1ccc(/C=C/C(=O)c2ccc([N+](=O)[O-])cc2)cc1 | > 100 | > 100 | > 100 | > 100 | > 100 | > 100 | > 100 | > 100 | > 100 | – | – | – | – | – | – | – | – | – | – | –
COc1ccc2c(c1)[nH]c(=O)c1c3cc(OC)c(OC)cc3cn21 | 15.3 | – | 44.1 | 1.16 | < 0.01 | 18.1 | 1.89 | 15.2 | 29.5 | 0.0386 | < 0.01 | < 0.0231 | – | < 0.0159 | < 0.01 | 0.0411 | 0.0124 | 14.7 | 16.6 | < 0.01
Cc1cccc(C(C)C)c1NC(=O)CCl | > 100 | > 100 | > 100 | > 100 | 59.9 | > 100 | 75.5 | > 100 | > 100 | – | – | – | – | – | – | – | – | – | – | –
C=C1CCC2C(C)(CO)C(O)CCC2(C)C1C/C=C1/CCOC1=O (stereo not given) | > 100 | > 100 | > 100 | > 100 | > 100 | > 100 | – | > 100 | > 100 | – | – | – | – | – | – | – | – | – | – | –
O=C1CCNC(=O)NC1 | > 100 | > 100 | > 100 | 56.6 | > 100 | > 100 | > 100 | > 100 | > 100 | – | – | – | – | – | – | – | – | – | – | –
O=C1c2cccc3c(Cl)ccc(c23)C(=O)N1CCCN1CCN(CCCN2C(=O)c3cccc4c(Cl)ccc(c34)C2=O)CC1 | > 100 | > 100 | > 100 | > 100 | > 100 | > 100 | – | > 100 | > 100 | – | – | – | – | – | – | – | – | – | – | –
CCC(C)c1cccc(C)c1NC(=O)C(=O)Cc1nc2ccccc2s1 (stereo not given) | > 100 | > 100 | > 100 | > 100 | > 100 | > 100 | > 100 | > 100 | > 100 | – | – | – | – | – | – | – | – | – | – | –
c1ccc2c(c1)Sc1ccccc1N2C1CN2CCC1CC2 (stereo not given) | 25.9 | 29.5 | 30.5 | 28.1 | 31.5 | – | – | 29.1 | 31.8 | – | – | – | – | – | – | – | – | – | – | –
COc1ccc(-c2nc(-c3ccccn3)c(-c3ccccn3)n2CC(C)C)cc1OC1CCCC1 | > 165 | > 165 | – | 61.6 | 114 | > 165 | – | > 165 | 95.3 | 48.7 | 9.71 | 79.4 | 6.37 | 18 | 30.3 | 26.5 | 24.5 | 26.2 | – | –
O=C(/C=C/c1ccccc1O)c1cccc2ccccc12 | > 100 | > 100 | > 100 | > 83.7 | > 100 | > 100 | > 88.9 | > 100 | > 100 | – | – | – | – | – | – | – | – | – | – | –
COc1cc(-c2nc(-c3ccc(-c4nc5ccc(F)cc5[nH]4)cc3)no2)cc(OC)c1OC | 17.9 | – | 6.52 | 5.44 | 5.83 | 34.5 | 5.44 | 38.3 | 14.8 | 3.61 | 2.27 | 7.36 | – | 1.99 | 2.56 | 5.59 | 3.59 | 3.7 | 2.32 | 1.9
O=C1CCCC(O)=C1SC1=C(O)CCCC1=O | > 100 | > 100 | > 100 | > 100 | > 100 | > 100 | > 100 | > 100 | > 100 | – | – | – | – | – | – | – | – | – | – | –
CN1C(=O)CCC1c1ccc2c(c1)oc(=O)n2C (stereo not given) | > 100 | > 100 | > 100 | > 100 | – | > 100 | > 100 | > 100 | > 100 | – | – | – | – | – | – | – | – | – | – | –
CC[C@H]1CN(C)[C@H]2Cc3c([nH]c4ccccc34)C(=O)C[C@H]1C2C(=O)OC (stereo not given in full) | > 100 | – | > 100 | > 100 | > 100 | > 100 | > 100 | > 100 | > 100 | – | – | > 100 | – | – | – | – | – | – | – | –
O=C(NO)c1ccc(Cn2c(=O)n(-c3ccccc3)c(=O)c3ccccc32)cc1 | 3.2 | > 100 | 2.34 | > 100 | 7.87 | 5.28 | 2.66 | – | 2.78 | 1.48 | 1.6 | 9.43 | 0.942 | 0.848 | 1.58 | 1.08 | – | 0.811 | 0.473 | 1.11
CCOC(=O)C(=O)Nc1ccccc1OCC | > 100 | > 100 | > 100 | > 100 | > 100 | > 100 | > 100 | > 100 | > 100 | – | – | – | – | – | – | – | – | – | – | –
